According to patent publication US9944589B2, “Cycloproplyamine derivatives useful as inhibitors of histone demethylases KDM1A” (Istituto Europeo de Oncologia S.r.L., priority 2012, dated 2018):
Several values for one entry are separate records, joined by “and”; a condition that tells them apart may be missing. Equal entries are not always repeated. Structures can show the parent of a compound that is named as a salt.

Target: T1, human recombinant KDM1A (LSD1)/CoRest (Homo sapiens, UniProt O60341)
T1 construct: made in house; host or cells: E. coli
Test: Assay of enzyme inhibition of KDM1A (LSD1), Amplex UltraRed/peroxidase coupled
Assay type: biochemical
Settings: 15 min preincubation, 4.5 μM mono-methylated H3-K4 peptide, range classes, read-out: IC50 [μM], KDM1A inhibition assay
Experimental: The experiments were performed using a mono-methylated H3-K4 peptide containing 21 amino acids (custom synthesis done by Thermo Scientific) as substrate and in a 50 mM TRIS, pH 8, 0.05 mg/ml BSA buffer.
The demethylase activity was estimated under aerobic conditions and at RT by measuring the release of H2O2 produced during the catalytic process by the Amplex® UltraRed detection system coupled with peroxidase assay. Briefly, a fixed amount of KDM1A/CoRest complex was incubated at RT for 15 minutes in the absence and/or the presence of various concentrations of inhibitor (e.g. from 0 to 100 μM, depending on the inhibitor strength) and of Amplex® UltraRed detection system coupled with peroxidase assay. The inhibitors were tested twice in duplicates at each concentration. […] The conversion of the Amplex® Ultra Red reagent to resorufin was monitored in continuous by fluorescence (excitation at 540 nm, emission at 590 nm) using a microplate reader (Infinite 200, Tecan). Arbitrary units were used to measure the level of H2O2 produced in the absence and/or in the presence of inhibition. The maximum demethylase activity of KDM1A/CoRest was obtained in the absence of inhibitors and corrected for background fluorescence in the absence of KDM1A/CoRest. The IC50 was calculated using GraphPad Software.

Row | Compound | IC50
1 | N[C@]1(c2ccccc2)C[C@H]1c1ccc(NC(=O)Cc2ccc3ccccc3c2)cc1 (relative stereo) [Example A-107, N-[4-(trans-2-amino-2-phenyl-cyclopropyl)phenyl]-2-(2-naphthyl) acetamide 2,2,2-trifluoroacetic acid] | < 0.1 µM
2 | N[C@]1(c2ccccc2)C[C@H]1c1ccc(NC(=O)c2ccncc2)cc1 (relative stereo) [Example A-108, N-[4-(trans-2-amino-2-phenyl-ccyclopropyl)phenyl] pyridine-4-carboxamide dihydrochloride] | < 0.1 µM
3 | CN1CCC(c2ccc(C(=O)Nc3ccc([C@@H]4C[C@]4(N)c4ccccc4)cc3)cc2)CC1 (relative stereo) [Example A-109, N-[4-(trans-2-amino-2-phenyl-cyclopropyl]phenyl)-4-(1-methyl-4-piperidyl) benzamide dihydrochloride] | < 0.1 µM
4 | CN1CCN(c2ccc(C(=O)Nc3ccc([C@@H]4C[C@]4(N)c4ccccc4)cc3)cc2)CC1 (relative stereo) [Example A-110, N-[4-(trans-2-amino-2-phenyl-cyclopropyl)phenyl]-4-(4-methylpiperazin-1-yl)benzamide hydrochloride] | < 0.1 µM
5 | N[C@]1(c2ccccc2)C[C@H]1c1ccc(NC(=O)c2cccc(N3CCOC3=O)c2)cc1 (relative stereo) [Example A-111, N-[4-(trans-2-amino-2-phenyl-cyclopropyl)phenyl]-3-(2-oxooxazolidin-3-yl)benzamide hydrochloride] | < 0.1 µM
6 | N[C@]1(CCc2ccccc2)C[C@H]1c1ccc(NC(=O)c2ccncc2)cc1 (relative stereo) [Example A-112, N-[4-(trans-2-amino-2-phenethyl-cyclopropyl)phenyl] pyridine-4-carboxamide hydrochloride] | < 0.1 µM
7 | CC[C@@]1(N)C[C@H]1c1ccc(NC(=O)c2ccc(NCCO)cc2)cc1 (relative stereo) [Example A-120, N-[4-(trans-2-amino-2-ethyl-cyclopropyl]phenyl)-4-(2-hydroxyethylamino)benzamide hydrochloride] | 0.1 to 1 µM
8 | CC[C@@]1(N)C[C@H]1c1ccccc1-n1cc(-c2ccccc2)nn1 (relative stereo) [Example A-125, trans 1-ethyl-2-[2-(4-phenyltriazol-1-yl)phenyl]cyclopropan amine hydrochloride] | 0.1 to 1 µM
9 | COc1cccc([C@@H]2C[C@]2(N)Cc2ccccc2)c1 (relative stereo) [Example A-129, trans 1-Benzyl-2-(3-methoxyphenyl)cyclopropanamine hydrochloride] | 0.1 to 1 µM
10 | CC[C@@]1(N)C[C@H]1c1cccc(N2CCN(c3ccccc3)C2=O)c1 (relative stereo) [Example A-130, 1-[3-[(trans-2-amino-2-ethyl-cyclopropyl]phenyl]-3-phenyl-imidazolidin-2-one hydrochloride] | 0.1 to 1 µM
11 | CC[C@@]1(N)C[C@H]1c1ccc(-n2cc(-c3ccccc3)nn2)cc1 (relative stereo) [Example A-131, trans-1-Ethyl-2-[4-(4-phenyltriazol-1-yl)phenyl]cyclopropanamine hydrochloride] | < 0.1 µM
12 | N[C@]1(CNC2CC2)C[C@H]1c1ccccc1 (relative stereo) [Example B-4, trans 1-[(cyclopropylamino)methyl]-2-phenyl-cyclopropanamine dihydrochloride] | 1 to 5 µM
13 | CN1CCN(C[C@@]2(N)C[C@H]2c2ccccc2)CC1 (relative stereo) [Example B-5, trans-1-[(4-methylpiperazine-1-yl)methyl]-2-phenyl-cyclopropanamine trihydrochloride] | 1 to 5 µM
14 | CC[C@@]1(NCC(=O)N2CCN(C)CC2)C[C@H]1c1ccccc1 (relative stereo) [Example C-6, trans-2-[[(1-ethyl-2-phenyl-cyclopropyl]amino]-1-(1-methylpiperazin-1-yl)ethanone trifluoroacetate] | 0.1 to 1 µM
15 | CC[C@@]1(NCc2ccccc2)C[C@H]1c1ccccc1 (relative stereo) [Example C-13, trans-N-benzyl-1-ethyl-2-phenyl-cyclopropanamine hydrochloride] | 1 to 5 µM
16 | C[C@@]1(NCc2cnc(N)nc2)C[C@H]1c1ccccc1 (relative stereo) [Example C-19, 5-{[(trans-1-methyl-2-phenyl-cyclopropyl)amino]methyl} pyrimidin-2-amine dihydrochloride] | 0.1 to 1 µM

Row | Compound | IC50
17 | COc1ncccc1CN[C@]1(C)C[C@H]1c1ccccc1 (relative stereo) [Example C-20, trans-N-[(2-methoxy-3-pyridyl)methyl]-1-methyl-2-phenyl-cyclopropanamine] | 1 to 5 µM
18 | C[C@@]1(NCc2ccc3c(c2)OCCO3)C[C@H]1c1ccccc1 (relative stereo) [Example C-21, trans-N-(2,3-dihydro-1,4-benzodioxin-6-ylmethyl)-1-methyl-2-phenyl-cyclopropanamine 2,2,2-trifluoroacetic acid] | 0.1 to 1 µM
19 | CN1CCN(C(=O)CN[C@]2(c3ccccc3)C[C@H]2c2ccccc2)CC1 (relative stereo) [Example C-23, 2-[[trans-1,2-diphenylcyclopropyl]amino]-1-(4-methylpiperazin-1-yl)ethanone dihydrochloride] | 0.1 to 1 µM
20 | CN1CCN(C(=O)CN[C@]2(C)C[C@H]2c2ccccc2)CC1 (relative stereo) [Example C-27, 2-[[trans-1-methyl-2-phenyl-cyclopropyl]amino]-1-(4-methylpiperazin-1-yl)ethanone dihydrochloride] | < 0.1 µM
21 | CN1CCN(C(=O)CN[C@@]2(C)C[C@H]2c2ccccc2)CC1 (relative stereo) [Example C-28, 2-[[cis-1-methyl-2-phenyl-cyclopropyl]amino]-1-(4-methylpiperazin-1-yl)ethanone dihydrochloride] | 1 to 5 µM
22 | CN[C@]1(C)C[C@H]1c1ccccc1 (relative stereo) [Example C-29, trans-N,1-dimethyl-2-phenyl-cyclopropanamine hydrochloride] | 1 to 5 µM
23 | CC[C@@]1(NCCN2CCCCC2)C[C@H]1c1ccccc1 (relative stereo) [Example C-31, trans-1-Ethyl-2-phenyl-N-[2-(1-piperidyl)ethyl]cyclopropanamine dihydrochloride] | 0.1 to 1 µM
24 | C[C@@]1(NCc2nnc(N)o2)C[C@H]1c1ccccc1 (relative stereo) [Example C-32, 5-[[[trans-1-methyl-2-phenyl-cyclopropyl]amino]methyl]-1,3,4-oxadiazol-2-amine] | 0.1 to 1 µM
25 | CC(=O)Nc1ccc([C@@]2(N)C[C@H]2c2ccccc2)cc1 (relative stereo) [Example D-6, N-[4-[trans-1-amino-2-phenyl-cyclopropyl]phenyl]acetamide hydrochloride] | 0.1 to 1 µM
26 | N[C@]1(Cc2ccc3ccccc3c2)C[C@H]1c1ccc(-n2cc(-c3cccc(NC(=O)OCc4ccccc4)c3)nn2)cc1 [Example A-123, benzyl N-[3-[1-[4-[2-amino-2-(2-naphthylmethyl)cyclopropyl]phenyl]triazol-4-yl]phenyl] carbamate hydrochloride] | < 0.1 µM
27 | CC[C@]1(N)C[C@@H]1c1ccc(NC(=O)c2ccc(-c3ccccc3)cc2)cc1 [Example A-128, N-[4-[(1R,2S)-2-amino-2-ethyl-cyclopropyl]phenyl]-4-phenyl-benzamide hydrochloride] | < 0.1 µM
28 | CN1CCN(C(=O)CN[C@@]2(C)C[C@@H]2c2ccccc2)CC1 [Example C-3, 2-[[(1S,2R)-1-methyl-2-phenyl-cyclopropyl]amino]-1-(4-methylpiperazin-1-yl)ethanone dihydrochloride] | < 0.1 µM and 1 to 5 µM
29 | C[C@]1(NCC(=O)N2CC[C@H](N)C2)C[C@@H]1c1ccccc1 [Example C-5, 1-[(3S)-3-aminopyrrolidin-1-yl]-2-[[(1S,2R)-1-methyl-2-phenyl-cyclopropyl]amino] ethanone hydrochloride] | 0.1 to 1 µM
30 | CN1CCN(C(=O)CN[C@]2(C)C[C@H]2c2ccccc2)CC1 [Example C-25, 2-[[(1R,2S)-1-methyl-2-phenyl-cyclopropyl]amino]-1-(4-methylpiperazin-1-yl)ethanone 2,2,2-trifluoroacetic acid] | < 0.1 µM
31 | CN1CCN(C(=O)CN[C@]2(C)C[C@@H]2c2ccccc2)CC1 [Example C-26, 2-[[(1R,2R)-1-methyl-2-phenyl-cyclopropyl]amino]-1-(4-methylpiperazin-1-yl)ethanone 2,2,2-trifluoroacetic acid] | 1 to 5 µM

System: Acute promyelocytic leukemia NB4 cells
Test: Cell growth (CellTiter-Fluor cell viability assay)
Assay type: cell-based
Settings: Homo sapiens, NB-4, 48 h, 100 μM, read-out: inhibition at 100 μM, cell growth inhibitory assay
Excerpt: CellTiter-Flor® (Promega) is as a nonlytic, single-reagent-addition fluorescence assay that measures the relative number of living cells in a culture population after experimental manipulation. The CellTiter-Fluor™ Cell Viability Assay measures the conserved and constitutive protease activity within live cells and therefore acts as a marker for cell viability.
Acute promyelocytic leukemia NB4 cells, (obtained from the Deutsche Sammlung von Mikroorganismen and Zellkulturen) in exponential growth, were incubated for 48 h with different concentrations of the inhibitors. After 48 h a volume of CellTiter-Fluor® Reagent equal to one fifth of volume of cell culture medium was added. The content was mixed and incubates for at least 90 min at 37° C. degree to obtain a stable signal. The fluorescence was recorded using an excitation wavelength of 360 nm and an emission at 535 nm. The IC50 was calculated using GraphPad Software.

Row | Compound | inhibition at 100 µM [%]
32 | N[C@@H]1C[C@H]1c1ccccc1 (racemic) [tranylcypromine, reference compound] | 10
